We go through 22 compounds from ChEMBL document CHEMBL1153274, “Microwave-assisted synthesis of N-substituted cyclic imides and their evaluation for anticancer and anti-inflammatory activities” (2009).

Assay type in all cases: functional
One test deals with SW-620. Briefly: Cytotoxicity against human SW620 cells after 48 hrs by SRB assay. A general note: In SRB staining, fixed cells bind dye roughly in proportion to their protein.
In test [1] the test system is Rattus norvegicus. Description: Antiinflammatory activity against carrageenan-induced paw edema in albino rat at 50 mg/kg, po administered 30 mins before carrageenan challenge measured after 1 to 3 hrs. On the technique in general: In the carrageenan paw model, swelling and tenderness develop within hours.
The next test concerns HEp-2. Briefly: Cytotoxicity against human Hep2 cells after 48 hrs by SRB assay.
For another test, the system named is SK-N-SH. Description: Cytotoxicity against human SK-N-SH cells after 48 hrs by SRB assay.
The next test deals with COLO 205. Briefly: Cytotoxicity against human COLO205 cells after 48 hrs by SRB assay.
In test [2] the test system is Rattus norvegicus. Description: Antiinflammatory activity against carrageenan-induced paw edema in albino rat at 25 mg/kg, po administered 30 mins before carrageenan challenge measured after 1 to 3 hrs.
Test [3] concerns Rattus norvegicus. Description: Antiinflammatory activity against carrageenan-induced paw edema in albino rat at 100 mg/kg, po administered 30 mins before carrageenan challenge measured after 1 to 3 hrs.

Regarding `O=C1c2nc[nH]c2C(=O)N1CCN1CCCCC1`, the “growth inhibition (GI)” value came to 17% in the test with SW-620, 18% in the test with HEp-2, 22% with SK-N-SH and 10% with COLO 205. In the test on Rattus norvegicus [1], this compound had an Activity of 0%.
Take `O=C1Cc2ccccc2CC(=O)N1Cc1ccccn1`: the “growth inhibition (GI)” value in the test with SW-620 amounted to 37%; in the test with HEp-2, 11%; with SK-N-SH, 0%; in the test with COLO 205, 0%. The compound further yielded an Activity in the test on Rattus norvegicus [1] of 32%.
For `O=C1c2nccnc2C(=O)N1Cc1cccs1`, the “growth inhibition (GI)” value in the test with SW-620 came to 46%; in the test on HEp-2, 16%; in the test with SK-N-SH, 12%; in the test on COLO 205, 7%. The Activity with Rattus norvegicus [1] is 31%.
For `O=c1[nH]cc(F)c(=O)[nH]1` [FLUOROURACIL], the “growth inhibition (GI)” value with SW-620 was determined as 44%; in the test with HEp-2, 40%; in the test with SK-N-SH it was 56%; in the test with COLO 205, 25%.
Taken in the same sequence, the figures for `CO[C@@]12[C@H](COC(N)=O)C3=C(C(=O)C(C)=C(N)C3=O)N1C[C@@H]1N[C@@H]12` [MITOMYCIN] were 29%, 60%, 85% and 41%.
With `O=C1c2nccnc2C(=O)N1Cc1ccncc1`, the “growth inhibition (GI)” value was 36% in the test on SW-620, 11% in the test with HEp-2, 0% in the test on SK-N-SH and 1% in the test with COLO 205. The compound further displayed an Activity with Rattus norvegicus [1] of 32%.
Take `O=C1c2nccnc2C(=O)N1Cc1ccco1`: the “growth inhibition (GI)” value in the test on SW-620 came out at 12%; with HEp-2 it was 11%; with SK-N-SH, 15%; with COLO 205, 7%. In the test on Rattus norvegicus [1], this compound gave an Activity of 0%.
Take `O=C1c2ccncc2C(=O)N1Cc1ccco1`: the “growth inhibition (GI)” value with SW-620 is 45%; in the test on HEp-2 it was 8%; with SK-N-SH, 0%; in the test on COLO 205, 0%. The Activity in the test with Rattus norvegicus [1] came to 24%.
Consider `O=C1c2ccncc2C(=O)N1Cc1ccccn1`, for which the “growth inhibition (GI)” value was 33% in the test on SW-620, 24% in the test with HEp-2, 10% in the test with SK-N-SH and 4% in the test with COLO 205. In the test on Rattus norvegicus [1], this compound gave an Activity of 27%.
As for `O=C1c2ccncc2C(=O)N1Cc1cccs1`, the “growth inhibition (GI)” value came out at 53% with SW-620, 24% with HEp-2, 12% in the test on SK-N-SH and 4% with COLO 205. For the same compound, the Activity in the test on Rattus norvegicus [1] was determined as 35%.
For the compound `O=C1Cc2ccccc2CC(=O)N1Cc1cccs1`, the “growth inhibition (GI)” value with SW-620 worked out at 52%; with HEp-2, 19%; with SK-N-SH it was 1%; in the test on COLO 205, 4%. Also, the Activity in the test with Rattus norvegicus [1] turned out to be 34%.
In the case of `O=C1Cc2ccccc2CC(=O)N1CCN1CCCCC1`, the “growth inhibition (GI)” value with SW-620 amounted to 45%; in the test with HEp-2, 15%; in the test with SK-N-SH it was 0%; in the test on COLO 205, 0%. For the same compound, in the test on Rattus norvegicus [1], the Activity is on record as 21%.
`O=C1c2nc[nH]c2C(=O)N1Cc1cccs1`: the “growth inhibition (GI)” value is 23% with SW-620, 15% in the test on HEp-2, 2% with SK-N-SH and 3% with COLO 205. This compound came in with an Activity with Rattus norvegicus [1] of 32%.
Regarding `O=C1c2nc[nH]c2C(=O)N1Cc1ccccn1`, the “growth inhibition (GI)” value in the test on SW-620 turned out to be 33%; in the test with HEp-2, 17%; with SK-N-SH, 11%; in the test on COLO 205, 6%. Further, the Activity in the test with Rattus norvegicus [1] came to 24%.
With `O=C1c2nccnc2C(=O)N1Cc1ccccn1`, the “growth inhibition (GI)” value in the test on SW-620 was 33%; in the test with HEp-2, 16%; in the test with SK-N-SH, 11%; with COLO 205, 6%. For the same compound, in the test with Rattus norvegicus [1], the Activity was 29%.
The matching figures for `O=C1c2ccncc2C(=O)N1CCN1CCCCC1`: 0%, 13%, 13%, 1% and 12%.
Take `CCCCC1C(=O)N(c2ccccc2)N(c2ccccc2)C1=O` [PHENYLBUTAZONE]: the values for the Activity in the test with Rattus norvegicus [2], in the test on Rattus norvegicus [3] and with Rattus norvegicus [1] were 17%, 63% and 37%, respectively.
Consider `O=C1c2nc[nH]c2C(=O)N1Cc1ccncc1`, for which the “growth inhibition (GI)” value in the test with SW-620 is 43%; in the test with HEp-2, 26%; with SK-N-SH it was 1%; in the test with COLO 205, 3%. Besides, the Activity in the test on Rattus norvegicus [1] is on record as 21%.
For `O=C1c2nccnc2C(=O)N1CCN1CCCCC1`, the “growth inhibition (GI)” value in the test on SW-620 was 9%; in the test with HEp-2 it was 12%; in the test with SK-N-SH, 10%; with COLO 205, 2%. In addition, in the test on Rattus norvegicus [1], the Activity is reported as 16%.
As for `O=C1Cc2ccccc2CC(=O)N1Cc1cccnc1`, the Activity in the test on Rattus norvegicus [2] was 19%; in the test on Rattus norvegicus [3] it was 67%; in the test on Rattus norvegicus [1], 40%. In addition, the “growth inhibition (GI)” value came to 22% in the test on SW-620, 6% in the test on HEp-2, 0% in the test with SK-N-SH and 0% in the test with COLO 205.
Turning to `O=C1Cc2ccccc2CC(=O)N1Cc1ccco1`, the “growth inhibition (GI)” value in the test with SW-620 was 17%; with HEp-2, 17%; in the test on SK-N-SH, 11%; in the test on COLO 205, 10%. This compound displayed an Activity in the test with Rattus norvegicus [1] of 22%.
`O=C1c2ccncc2C(=O)N1Cc1ccncc1`: the “growth inhibition (GI)” value in the test on SW-620 came to 20%; with HEp-2, 12%; in the test with SK-N-SH, 9%; with COLO 205, 12%. The Activity with Rattus norvegicus [1] was found to be 33%.
